In assay [1] the target is MAGL (Mus musculus (Mouse), UniProt O35678). Description: In vitro competitive activity-based protein profiling, MAGL (mouse). It is filed as biochemical. The following applies: for inhibition at 1 µM: read-out: MAGL % inh. 1 μM (mouse). In short, it runs like this: (§1)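 Residual MAGL and FAAH activity quantified from fluorescent gel bands after SDS-PAGE. Before that, FP-Rh or HT-01 probe (50 μM stock) labelled for 30 min at 37 °C, following 30 min inhibitor preincubation. Mouse assays used brain membrane fraction or cell lysates, human used prefrontal cortex or cell membranes, all at 1.0 mg/mL protein.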

For assay [2], the target named is FAAH (Mus musculus (Mouse), UniProt O08914). Description: In vitro competitive activity-based protein profiling, FAAH (mouse). It is filed as biochemical. The following applies: for inhibition at 1 µM: read-out: FAAH % inh. 1 μM (mouse). The procedure, abridged: as §1
Sequence of FAAH (O08914 whole entry): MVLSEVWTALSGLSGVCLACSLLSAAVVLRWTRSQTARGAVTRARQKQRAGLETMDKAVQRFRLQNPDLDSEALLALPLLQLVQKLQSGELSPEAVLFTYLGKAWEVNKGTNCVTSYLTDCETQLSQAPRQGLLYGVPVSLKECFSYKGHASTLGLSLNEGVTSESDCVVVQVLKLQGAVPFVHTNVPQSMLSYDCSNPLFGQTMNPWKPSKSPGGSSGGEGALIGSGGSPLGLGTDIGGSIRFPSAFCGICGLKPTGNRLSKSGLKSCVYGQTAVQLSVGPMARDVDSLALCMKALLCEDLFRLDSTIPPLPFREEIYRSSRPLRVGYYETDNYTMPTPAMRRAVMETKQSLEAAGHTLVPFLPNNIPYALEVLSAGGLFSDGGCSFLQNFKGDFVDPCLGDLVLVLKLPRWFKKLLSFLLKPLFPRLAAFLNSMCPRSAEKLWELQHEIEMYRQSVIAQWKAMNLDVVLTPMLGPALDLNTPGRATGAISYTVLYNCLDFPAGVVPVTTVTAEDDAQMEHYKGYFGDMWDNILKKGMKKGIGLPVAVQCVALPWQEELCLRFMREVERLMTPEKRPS

Sequence of MAGL (O35678 whole entry): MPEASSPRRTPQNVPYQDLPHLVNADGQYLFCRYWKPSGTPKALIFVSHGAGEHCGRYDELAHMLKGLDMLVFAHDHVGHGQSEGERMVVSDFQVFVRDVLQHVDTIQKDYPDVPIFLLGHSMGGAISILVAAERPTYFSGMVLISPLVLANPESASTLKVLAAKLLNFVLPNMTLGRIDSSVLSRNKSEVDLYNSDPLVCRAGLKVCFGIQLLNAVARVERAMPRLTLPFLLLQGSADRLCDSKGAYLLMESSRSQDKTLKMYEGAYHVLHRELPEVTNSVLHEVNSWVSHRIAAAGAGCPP

With `CC(=O)N(C)c1cnn(C(=O)N2CC3CN(Cc4ccc(-c5cnccn5)cc4Cl)CC3C2)c1` (stereo not drawn) [Example 266, N-(1-(5-(2-chloro-4-(pyrazin-2-yl)benzyl)octahydropyrrolo[3,4-c]pyrrole-2-carbonyl)-1H-pyrazol-4-yl)-N-methylacetamide], the inhibition at 1 µM in assay [1] and in assay [2] was not below 75% each time.
Turning to `CC(=O)N(C)c1cnn(C(=O)N2CC3CN(Cc4ccc(-c5nccs5)cc4Cl)CC3C2)c1` (stereo not drawn) [Example 267, N-(1-(5-(2-chloro-4-(thiazol-2-yl)benzyl)octahydropyrrolo[3,4-c]pyrrole-2-carbonyl)-1H-pyrazol-4-yl)-N-methylacetamide], the inhibition at 1 µM in assay [1] and in assay [2] was not below 75% in each case.
Regarding `CC(=O)N(C)c1cnn(C(=O)N2CCC3(CCN(Cc4ccc(-c5ncccn5)cc4Cl)C3)C2)c1` (stereo not drawn) [Example 268, N-(1-(7-(2-chloro-4-(pyrimidin-2-yl)benzyl)-2,7-diazaspiro[4.4]nonane-2-carbonyl)-1H-pyrazol-4-yl)-N-methylacetamide], the inhibition at 1 µM in assay [1] and in assay [2] was not below 75% in each case.
As to `CC(=O)N(C)c1cnn(C(=O)N2CCC3(CCN(Cc4ccc(-c5nccs5)cc4Cl)C3)C2)c1` (stereo not drawn) [Example 269, N-(1-(7-(2-chloro-4-(thiazol-2-yl)benzyl)-2,7-diazaspiro[4.4]nonane-2-carbonyl)-1H-pyrazol-4-yl)-N-methylacetamide], the inhibition at 1 µM in assay [1] and in assay [2] was not below 75% in each case.
As for `CC(=O)N(C)c1cnn(C(=O)N2CC3CN(Cc4ccc(OC5CCN(C6CC6)CC5)cc4Cl)CC3C2)c1` (stereo not drawn) [Example 270, N-(1-(5-(2-chloro-4-((1-cyclopropylpiperidin-4-yl)oxy)benzyl)octahydropyrrolo[3,4-c]pyrrole-2-carbonyl)-1H-pyrazol-4-yl)-N-methylacetamide], the inhibition at 1 µM in assay [1] and in assay [2] was not below 75% throughout.
Take `CC(=O)N(C)c1cnn(C(=O)N2CC3CN(Cc4ccc(OC5CCN(C6CC6)CC5)cc4C(F)(F)F)CC3C2)c1` (stereo not drawn) [Example 271, N-(1-(5-(4-((1-cyclopropylpiperidin-4-yl)oxy)-2-(trifluoromethyl)benzyl)octahydropyrrolo [3,4-c]pyrrole-2-carbonyl)-1H-pyrazol-4-yl)-N-methylacetamide]: the inhibition at 1 µM in assay [1] and in assay [2] was not below 75% throughout.
Turning to `CC(=O)N(C)c1cnn(C(=O)N2CC3CN(Cc4ccc(-c5ccncn5)cc4Cl)CC3C2)c1` (stereo not drawn) [Example 272, N-(1-(5-(2-chloro-4-(pyrimidin-4-yl)benzyl)octahydropyrrolo[3,4-c]pyrrole-2-carbonyl)-1H-pyrazol-4-yl)-N-methylacetamide], the inhibition at 1 µM in assay [1] and in assay [2] was not below 75% in each case.
Consider `CC(=O)N(C)c1cnn(C(=O)N2CCC3(CCN(Cc4ccc(-c5ccncn5)cc4Cl)C3)C2)c1` (stereo not drawn) [Example 273, N-(1-(7-(2-chloro-4-(pyrimidin-4-yl)benzyl)-2,7-diazaspiro[4.4]nonane-2-carbonyl)-1H-pyrazol-4-yl)-N-methylacetamide], for which, in assay [1], the IC50 (as a rule, the concentration needed to halve the response being measured) lay in the range of 100 to 1000 nM and the inhibition at 1 µM is not below 75%. Also, in assay [2], the concentration for half-maximal inhibition (IC50) is not above 100 nM and the inhibition at 1 µM is not below 75%.
With `CS(=O)(=O)Nc1cnn(C(=O)N2CC3CN(Cc4cc(Cl)ccc4C(F)(F)F)CC3C2)c1` (stereo not drawn) [Example 275, N-(1-(5-(5-chloro-2-(trifluoromethyl)benzyl)octahydropyrrolo [3,4-c]pyrrole-2-carbonyl)-1H-pyrazol-4-yl)methanesulfonamide], the results for the IC50 in assay [1] and in assay [2] were not above 100 nM and 100 to 1000 nM, respectively. Moreover, the inhibition at 1 µM in assay [1] and in assay [2] was not below 75% throughout.
For the compound `CS(=O)(=O)Nc1cnn(C(=O)N2CCC3(CCN(Cc4cc(Cl)ccc4C(F)(F)F)C3)CC2)c1` [Example 276, N-(1-(2-(5-chloro-2-(trifluoromethyl)benzyl)-2,8-diazaspiro[4.5]decane-8-carbonyl)-1H-pyrazol-4-yl)methanesulfonamide], the inhibition at 1 µM in assay [1] and in assay [2] was not below 75% in each case.
Turning to `CS(=O)(=O)Nc1cnn(C(=O)N2CCC3(CC2)CN(Cc2cc(Cl)ccc2C(F)(F)F)C3)c1` [Example 277, N-(1-(2-(5-chloro-2-(trifluoromethyl)benzyl)-2,7-diazaspiro[3.5]nonane-7-carbonyl)-1H-pyrazol-4-yl)methanesulfonamide], in assay [1], the IC50 is not above 100 nM and the inhibition at 1 µM was not below 75%. In addition, in assay [2], the IC50 is not above 100 nM and the inhibition at 1 µM was not below 75%.
As for `CN(Cc1cc(Cl)ccc1C(F)(F)F)[C@H]1C[C@@H]2CN(C(=O)n3cc(NS(C)(=O)=O)cn3)C[C@@H]2C1` [Example 278, N-(1-[[trans-5-([[5-chloro-2-(trifluoromethyl)phenyl]methyl](methyl)amino)-octahydrocyclopenta[c]pyrrol-2-yl)carbonyl]-1H-pyrazol-4-yl)methanesulfonamide], the inhibition at 1 µM in assay [1] and in assay [2] was not below 75% each time.
As for `CS(=O)(=O)Nc1cnn(C(=O)N2CC3CN(Cc4ccc(N5CCCC5)cc4C(F)(F)F)CC3C2)c1` (stereo not drawn) [Example 279, N-(1-(5-(4-(pyrrolidin-1-yl)-2-(trifluoromethyl)benzyl)octahydropyrrolo [3,4-c]pyrrole-2-carbonyl)-1H-pyrazol-4-yl)methanesulfonamide], in assay [1], the IC50 is not above 100 nM and the inhibition at 1 µM is not below 75%. In assay [2], the IC50 fell in the range of 100 to 1000 nM and the inhibition at 1 µM was not below 75%.
Regarding `CS(=O)(=O)Nc1cnn(C(=O)N2CCC3(CCN(Cc4ccc(N5CCCC5)cc4C(F)(F)F)C3)CC2)c1` [Example 280, N-(1-(2-(4-(pyrrolidin-1-yl)-2-(trifluoromethyl)benzyl)-2,8-diazaspiro[4.5]decane-8-carbonyl)-1H-pyrazol-4-yl)methanesulfonamide], the inhibition at 1 µM in assay [1] and in assay [2] was not below 75% each time.
On to `CS(=O)(=O)Nc1cnn(C(=O)N2CCC3(CC2)CN(Cc2ccc(N4CCCC4)cc2C(F)(F)F)C3)c1` [Example 281, N-(1-(2-(4-(pyrrolidin-1-yl)-2-(trifluoromethyl)benzyl)-2,7-diazaspiro[3.5]nonane-7-carbonyl)-1H-pyrazol-4-yl)methanesulfonamide], for which the inhibition at 1 µM in assay [1] and in assay [2] was not below 75% in each case.
As for `CN(Cc1ccc(N2CCCC2)cc1C(F)(F)F)[C@H]1C[C@@H]2CN(C(=O)n3cc(NS(C)(=O)=O)cn3)C[C@@H]2C1` [Example 282, N-(1-(trans-5-(methyl(4-(pyrrolidin-1-yl)-2-(trifluoromethyl)benzyl)amino)octahydrocyclopenta[c]pyrrole-2-carbonyl)-1H-pyrazol-4-yl) methanesulfonamide], the inhibition at 1 µM in assay [1] was 50 to 75%; in assay [2] it was not below 75%.
For `CS(=O)(=O)Nc1cnn(C(=O)N2CCC3(CCN(Cc4cc(Cl)ccc4C(F)(F)F)C3)C2)c1` (stereo not drawn) [Example 284, N-[1-[(7-[[5-chloro-2-(trifluoromethyl)phenyl]methyl]-2,7-diazaspiro[4.4]nonan-2-yl)carbonyl]-1H-pyrazol-4-yl]methanesulfonamide], in that order: 25 to 50% and not below 75%.
